We go through 2 substances from patent US20020071842A1, “Soluble CD1 compositions and uses thereof” (priority 2000, published 2002).

In the assay the test system is human CD1d-restricted T cell clones. Briefly: Flow cytometric staining with lipid treated multimerized CD1d-Fc aggregates. The assay is classed as cell-based. Conditions: flow cytometry; human CD1d-Fc/Alexa 488 protein A aggregate, 40:1 lipid to fusion protein, compared with DMSO alone. How it is done:
To facilitate binding to CD1 specific T cells for detection by flow cytometry, a highly multimerized form of the CD1d fusion protein was formed using fluorescently labeled protein A molecules. Protein A molecules spontaneously associate in solution at neutral pH with immunoglobulin Fc regions, forming complexes containing four Fc molecules and two protein A molecules (4+2 complexes, reference 2). The human CD1d-Fc fusion protein was incubated with Alexa 488 dye labeled protein A, and the 4+2 complexes purified by size exclusion chromatography on a Pharmacia Superose 6 column using PBS pH 7.2 as a running buffer. The purified 4+2 aggregates were concentrated to 100 μg/ml with ovalbumin as a carrier protein. The CD1d-Fc aggregate was then pre-incubated for 24 to 48 hours at 37° C. with antigenic glycolipids dissolved in DMSO at a 40:1 molar ratio of lipid to fusion protein, or with an equivalent volume of DMSO alone as a negative control. The T cell staining was performed at room temperature or 4° C. for 20 min, at a concentration of 40 μg/ml of the lipid or control treated CD1d-Fc aggregate.
To facilitate binding to CD1 specific T cells for detection by flow cytometry, a highly multimerized form of the CD1d fusion protein is formed using fluorescently labeled protein A molecules. Protein A molecules spontaneously associate in solution at neutral pH with immunoglobulin Fc regions, forming complexes containing four Fc molecules and two protein A molecules (4+2 complexes, Langone, J.J. et al, Molec. and Cell. Biochem, 65(2):159-70 (1985)). The human CD1d-Fc fusion protein was incubated with Alexa 488-dye labeled protein A, and the 4+2 complexes purified by size exclusion chromatography on a Phannacia Superose 6 column using PBS pH 7.2 as a running buffer. The purified 4+2 aggregates are concentrated to 100 μg/ml with ovalbumin as a carrier protein. The CD1d-Fc aggregate is then pre-incubated for 24 to 48 hours at 37° C. with antigenic glycolipids dissolved in DMSO at a 40:1 molar ratio of lipid to fusion protein, or with an equivalent volume of DMSO alone as a negative control. The T cell staining is performed at room temperature or 4° C. for 20 min, at a concentration of 40 μg/ml of the lipid or control treated CD1d-Fc aggregate.
Flow cytometric analysis of a CD1d-restricted T cell clone stained with the multimerized CD1d-Fc fusion protein (abbreviated as “hd(8)-fl”) was performed as follows. Staining with CD1d-Fc treated with lipid antigens dissolved in DMSO was compared with CD1d-Fc treated with DMSO alone as a negative control. The specific lipid antigen used were: aGalCer is α-galactosyl ceramide (KRN7000); aGlcCer is α-glucosyl ceramide; aManCer is α-mannosyl ceramide; bGalCer is β-galactosyl ceramide; Cer is ceramide (acylphytosphingolipid).
Flow cytometric analysis of a series of human T cell clones stained with the multimerized CD1d-Fc fusion protein, treated with α-GalCer or DMSO alone also was performed, including staining of two different CD1d-restricted (“NKT”) T cell clones DN2.B9 and DN1.10B3. Four other T cell clones that are not CD1d-restricted also were stained.
A general note: Flow cytometry measures light scatter and fluorescence of single cells or particles in a stream.

α-mannosyl ceramide [α-ManCer]: the “staining of CD1d-restricted T cell clones by lipid treated CD1d-Fc aggregate” value was “did not stain above background levels”.

Regarding α-glucosyl ceramide [α-GlcCer], the “staining of CD1d-restricted T cell clones by lipid treated CD1d-Fc aggregate” value was “positive staining”.
